The record followed here is ChEMBL document CHEMBL5143703, “Discovery of novel chloropyramine-cinnamic acid hybrids as potential FAK inhibitors for intervention of metastatic triple-negative breast cancer” (Bioorg Med Chem, 2022).

The subject of data set [1] is MDA-MB-231. Description: Antiproliferative activity against human MDA-MB-231 cells assessed as inhibition of cell proliferation incubated for 72 hrs by MTT assay. The conditions noted are these: MDA-MB-231, 72 h. The data set is classed as functional, cell-based. (In general: Tetrazolium dyes change colour on reduction, which living cells bring about.)
Data set [2] concerns MDA-MB-453. Nature of the data set: Antiproliferative activity against human MDA-MB-453 cells assessed as inhibition of cell proliferation incubated for 72 hrs by MTT assay. The settings on record: MDA-MB-453, 72 h. The data set is classed as functional, cell-based.
Data set [3] is described as follows: Cytotoxicity against human MCF-10A cells assessed as inhibition of cell proliferation incubated for 72 hrs by MTT assay. It counts as toxicity, cell-based.
Data set [4] deals with MDA-MB-157. Description: Antiproliferative activity against human MDA-MB-157 cells assessed as inhibition of cell proliferation incubated for 72 hrs by MTT assay. It counts as functional, cell-based. The conditions noted are these: MDA-MB-157, 72 h.
Data set [5] deals with MDA-MB-231. Nature of the data set: Induction of apoptosis in human MDA-MB-231 cells assessed as viable cells at 20 uM incubated for 72 hrs by Annexin V-FITC and PI staining based flow cytometry analysis (reference value: 92.16 %). It counts as functional. The settings on record: read-out: Activity.
Data set [6] has as its system MDA-MB-231. Description: Induction of apoptosis in human MDA-MB-231 cells assessed as dead cells at 20 uM incubated for 72 hrs by Annexin V-FITC and PI staining based flow cytometry analysis (reference value: 1.16 %). The data set is classed as functional. In general terms: In flow cytometry, cells or beads pass a laser one at a time.
The subject of data set [7] is MDA-MB-231. Nature of the data set: Induction of apoptosis in human MDA-MB-231 cells assessed as late apoptotic cells at 10 uM incubated for 72 hrs by Annexin V-FITC and PI staining based flow cytometry analysis (reference value: 4.98 %). The data set is classed as functional.
Data set [8] deals with MDA-MB-231. Description: Induction of apoptosis in human MDA-MB-231 cells assessed as late apoptotic cells at 5 uM incubated for 72 hrs by Annexin V-FITC and PI staining based flow cytometry analysis (reference value: 4.98 %). It counts as functional.
Data set [9] relates to MDA-MB-231. Description: Induction of apoptosis in human MDA-MB-231 cells assessed as early apoptotic cells at 20 uM incubated for 72 hrs by Annexin V-FITC and PI staining based flow cytometry analysis (reference value: 1.70 %). The data set is classed as functional.
Data set [10] addresses Focal adhesion kinase 1 (Homo sapiens) (UniProt Q05397). Nature of the data set: Inhibition of FAK autophosphorylation at […] in human MDA-MB-231 cells incubated for 72 hrs by Western blot analysis. The data set is classed as cell-based. The settings on record: dose 5-20 µM, DDE = dose-dependent effect.
The test system of data set [11] is MDA-MB-231. Nature of the data set: Inhibition of cell invasion in human MDA-MB-231 cells assessed as reduction in invasive cells incubated for 24 hrs by crystal violet staining based transwell assay. The conditions noted are these: dose 5-20 µM, DDE = dose-dependent effect. The data set is classed as functional.
In data set [12] the test system is MDA-MB-231. Nature of the data set: Inhibition of cell migration in human MDA-MB-231 cells incubated for 24 hrs by scratch wound healing assay. The data set is classed as functional, cell-based. The settings on record: dose 5-20 µM, DDE = dose-dependent effect.
The test system of data set [13] is MDA-MB-231. Nature of the data set: Induction of apoptosis in human MDA-MB-231 cells assessed as viable cells at 10 uM incubated for 72 hrs by Annexin V-FITC and PI staining based flow cytometry analysis (reference value: 92.16 %). It counts as functional. The settings on record: read-out: Activity.
For data set [14], the system named is MDA-MB-231. Description: Inhibition of focal adhesion formation in human MDA-MB-231 cells assessed as reduction in focal adhesion at 20 uM incubated for 72 hrs by vinculin antibody based immunofluorescence microscopic analysis. The data set is classed as functional, cell-based.
In data set [15] the test system is MDA-MB-231. Nature of the data set: Induction of apoptosis in human MDA-MB-231 cells assessed as dead cells at 10 uM incubated for 72 hrs by Annexin V-FITC and PI staining based flow cytometry analysis (reference value: 1.16 %). It counts as functional.
The subject of data set [16] is MDA-MB-231. Nature of the data set: Induction of apoptosis in human MDA-MB-231 cells assessed as early apoptotic cells at 5 uM incubated for 72 hrs by Annexin V-FITC and PI staining based flow cytometry analysis (reference value: 1.70 %). The data set is classed as functional.
Data set [17] relates to MDA-MB-231. Nature of the data set: Induction of apoptosis in human MDA-MB-231 cells assessed as late apoptotic cells at 20 uM incubated for 72 hrs by Annexin V-FITC and PI staining based flow cytometry analysis (reference value: 4.98 %). It counts as functional.
The test system of data set [18] is MDA-MB-231. Description: Induction of apoptosis in human MDA-MB-231 cells assessed as dead cells at 5 uM incubated for 72 hrs by Annexin V-FITC and PI staining based flow cytometry analysis (reference value: 1.16 %). It counts as functional.
Data set [19] relates to MDA-MB-231. Nature of the data set: Induction of apoptosis in human MDA-MB-231 cells assessed as early apoptotic cells at 10 uM incubated for 72 hrs by Annexin V-FITC and PI staining based flow cytometry analysis (reference value: 1.70 %). It counts as functional.
Data set [20] deals with MDA-MB-231. Nature of the data set: Inhibition of stress fibers formation in human MDA-MB-231 cells assessed as reduction in stress fibers at 20 uM incubated for 72 hrs by FITC-Phalloidin staining based immunofluorescence microscopic analysis. The data set is classed as functional, cell-based.
A short description of data set [21]: Potency index, ratio of test compound IC50 to chloropyramine IC50 for cytotoxicity against human MCF-10A cells assessed as inhibition of cell proliferation incubated for 72 hrs by MTT assay. It counts as toxicity, cell-based. The conditions noted are these: read-out: Ratio IC50.
Data set [22] has as its system MDA-MB-231. Description: Potency index, ratio of chloropyramine IC50 to test compound IC50 for antiproliferative activity against human MDA-MB-231 cells assessed as inhibition of cell proliferation incubated for 72 hrs by MTT assay. The data set is classed as functional.
The subject of data set [23] is MDA-MB-231. Description: Antiproliferative activity against human MDA-MB-231 cells assessed as inhibition of cell proliferation at 10 uM incubated for 72 hrs by MTT assay relative to control. The data set is classed as functional.
The subject of data set [24] is MDA-MB-231. Nature of the data set: Induction of apoptosis in human MDA-MB-231 cells assessed as viable cells at 5 uM incubated for 72 hrs by Annexin V-FITC and PI staining based flow cytometry analysis (reference value: 92.16 %). The conditions noted are these: read-out: Activity. The data set is classed as functional.

pIC50: −log10 of the molar value. Active and inactive are the calls of the source. The rule behind the calls is not given here.

Sequence of Focal adhesion kinase 1 (Homo sapiens) (Q05397 2-1052 limits assumed): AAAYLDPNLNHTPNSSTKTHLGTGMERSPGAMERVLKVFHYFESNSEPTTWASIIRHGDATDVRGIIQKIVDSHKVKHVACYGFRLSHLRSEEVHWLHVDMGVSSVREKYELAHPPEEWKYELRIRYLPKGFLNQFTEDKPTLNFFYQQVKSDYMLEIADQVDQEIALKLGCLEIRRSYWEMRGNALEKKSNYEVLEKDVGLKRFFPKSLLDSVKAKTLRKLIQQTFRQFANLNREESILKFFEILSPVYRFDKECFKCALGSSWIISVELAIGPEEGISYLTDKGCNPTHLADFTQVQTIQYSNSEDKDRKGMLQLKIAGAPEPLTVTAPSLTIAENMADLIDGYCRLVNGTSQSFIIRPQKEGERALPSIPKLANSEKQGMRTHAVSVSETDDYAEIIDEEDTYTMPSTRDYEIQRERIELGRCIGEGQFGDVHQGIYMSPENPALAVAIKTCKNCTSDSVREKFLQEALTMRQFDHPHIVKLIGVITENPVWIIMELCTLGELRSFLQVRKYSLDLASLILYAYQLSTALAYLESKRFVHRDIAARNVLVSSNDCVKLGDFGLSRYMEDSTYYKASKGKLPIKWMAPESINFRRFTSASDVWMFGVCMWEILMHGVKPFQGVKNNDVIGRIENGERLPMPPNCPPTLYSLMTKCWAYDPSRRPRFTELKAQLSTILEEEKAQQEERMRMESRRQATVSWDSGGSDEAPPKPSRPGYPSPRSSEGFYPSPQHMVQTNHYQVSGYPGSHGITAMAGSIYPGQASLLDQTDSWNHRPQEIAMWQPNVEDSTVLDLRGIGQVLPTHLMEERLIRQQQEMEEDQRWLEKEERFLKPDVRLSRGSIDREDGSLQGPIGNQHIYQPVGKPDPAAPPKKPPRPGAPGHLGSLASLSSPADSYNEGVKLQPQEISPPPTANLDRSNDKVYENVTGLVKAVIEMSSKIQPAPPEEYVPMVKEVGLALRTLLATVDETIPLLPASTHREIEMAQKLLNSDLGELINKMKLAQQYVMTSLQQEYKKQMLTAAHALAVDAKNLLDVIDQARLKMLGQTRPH

In general, pIC50 refers to the negative decadic logarithm of the IC50, by convention in mol/L. As a reminder, the IC50 is the point on the concentration scale where inhibition reaches its midpoint. With `CN(C)CCN(Cc1ccc(Cl)cc1)c1ccccn1` [CHLOROPYRAMINE], the pIC50 in [1] was 4.30; in data set [2], less than 4.22; in data set [4], 4.37. In addition, the IC50 at 72 h in data set [3] is more than 60 µM.
For orientation: inhibition means the percentage by which the read-out fell short of the control. For `CN(C)CCN(C(=O)/C=C/c1c[nH]c2ccccc12)c1ccccn1`, the pIC50 was 5.08 in [1], 5.04 in [2] and 4.92 in data set [4]. The viability at 20 µM in data set [5] was 52.6%. For the same compound, the Activity in data set [6] is listed as 5.83%; in data set [7] it was 30.24%; in data set [8], 10.05%; in [9] it was 2.01%; in data set [15] it was 3.98%; in data set [16] it was 3.05%. The Activity is recorded as 39.58% in data set [17], 3.88% in data set [18] and 2% in [19]. The IC50 at 72 h in data set [3] worked out at 40.6 µM. Moreover, the inhibition result in data set [10], in [11] and in data set [12] was “Dde” each time. In [13], the viability at 10 µM came to 63.8%. Further, the inhibition result in data set [14] and in [20] was “Active” in each case. In addition, in data set [21], the selectivity ratio at 72 h came out at 5. Moreover, the “Ratio IC50” value in data set [22] is listed as 6. In addition, the inhibition at 10 µM in [23] is more than 50%. In addition, the viability at 5 µM in [24] was 83%.
For `Cc1nc(C)c(/C=C/C(=O)N(CCN(C)C)c2ccccn2)nc1C`, the results for the pIC50 in [1], in [2] and in [4] were 4.86, 4.67 and 5.01, respectively. Also, in data set [3], the half-inhibitory concentration (IC50) at 72 h is more than 60 µM. The inhibition at 10 µM in data set [23] was more than 50%.
The matching figures for `COc1cc(/C=C/C(=O)N(CCN(C)C)c2ccccn2)ccc1O`: 4.87, 4.80, 4.85, more than 60 µM and more than 50%.
`COc1cc(/C=C/C(=O)N(CCN(C)C)c2ccccn2)cc(OC)c1OC`: the pIC50 in [1] was 5.03; in data set [2] it was 4.81; in [4], 4.67. The IC50 at 72 h in data set [3] amounted to 45.5 µM. The inhibition at 10 µM in [23] is more than 50%.
